Measured values published in US20100273206A1, “DIAGNOSTIC IN VITRO METHOD FOR ASSESSING VON WILLEBRAND DISEASE AND INCREASED BLEEDING RISK ASSOCIATED WITH VON WILLEBRAND DISEASE AND ACQUIRED OR CONGENITAL DISORDERS OF PLATELET FUNCTION” (priority 2007, published 2010).

Experiments:
VWD type 1 patients = experiment: In vivo therapy control (DDAVP); set-up: species or system human; conditions: three VWD type 1 patients; before, 30 min and 180 min after DDAVP
Excerpt: Therapy in VWD may be necessary to alleviate a bleeding episode or to prevent bleeding episode. Most individuals with type 1 VWD generally are managed effectively using DDAVP (Desmopressin acetate), which acts to release endogenous stored VWF. It is usual to conduct a trial of DDAVP and then monitor the response by subsequent blood sampling and testing. […] The method is a simple and rapid tool to discriminate responders from nonresponders to DDAVP. The advantage of this method is the close to immediate test time obtained. The result is available very soon after blood sampling. In contrast the VWF:CB result is generally obtained some days after blood sampling. The values for the amplitude ratio, the VWF:Ag and VWF-RCo are shown in figure 7 for three time points (before, 30 min after and 180 min after administration of DDAVP).

[1] = tested on: citrate-stabilized blood from a healthy patient; experiment: TEG (Rotem) of kaolin-activated citrated blood incubated with increasing amounts of ristocetin; format: cell-based, human; conditions: 10 min incubation, increasing final ristocetin concentration (up to 1.05 mg/ml)
Method: Citrate-stabilized blood from a healthy patient was transferred to a vial containing a standardized kaolin reagent and mixed by inversion The kaolin reagent was purchased from Haemoscope Corporation. The mixture was mixed well and divided into two 500 μL aliquots. Different amounts of ristocetin at a concentration of 15 mg mL^−1 was added to one part of the activated blood aliquots and both samples were incubated on a mixer for 10 min. 300 μL of both aliquots were filled to TEG assay cups and 20 μL of 0.2 M CaCl2 were added. The TEG tracings were allowed to run as least until the maximal amplitude was reached using a Rotem Analyser. […] Dependent of the final ristocetin concentration a decrease of the maximal amplitude and an increase in the clotting time were observed.

[2] = tested on: citrate-stabilized blood (platelets and VWF); experiment: TEG maximal amplitude with versus without ristocetin preincubation; format: cell-based, human; conditions: for maximal amplitude after ristocetin preincubation relative to maximal amplitude without preincubation: 25 μL of 15 mg/mL ristocetin per 500 μL, 10 min
Method: If TEG is the assay to determine the viscoelastic change the platelet activation in response to the activator of platelet aggregation for example ristocetin can by way of non limiting example be determined from the maximum amplitudes in the control without added platelet activator (MA) and the sample with the added platelet activator Ristocetin (MARistocetin): which can then be expressed as the ratio (MARistocetin/MA)*100. The percentage change is determined to assess individual subject's responses, thus providing an indication of relative response to a certain dose of ristocetin.
Analyser and the reagents were from Haemoscope Corporation. 1.3 mL of blood was collected in 3.18% trisodium citrate (1:9 anticoagulant to blood). One millilitre of citrate-stabilized blood was transferred to a vial containing a standardized kaolin reagent and mixed by inversion. The mixture was mixed well and divided into two 500 μL aliquots. 25 μL ristocetin at a concentration of 15 mg mL^−1 was added to one part of the activated blood aliquots and both samples were incubated on a mixer for 10 min. 360 μL of both aliquots were filled to TEG assay cups and 20 μL of 0.2 M CaCl2 were added. The TEG tracings were allowed to run as least until the maximal amplitude was reached.
According to the procedure in example 2 blood samples from healthy patients and patients with from VWD were tested. All VWD samples derived from patients diagnosed as having VWD using standard criteria. In addition to VWD plasma, a number of normal samples were also collected and used for comparative studies. The platelet activation in response to ristocetin is determined from the maximum amplitudes in the control (MA) and ristocetin activated trace (MARistocetin): MARicocetin/MA*100. The percentage change was calculated to assess individual subject's responses, thus providing an indication of relative response to a certain dose of ristocetin (0.71 mg/ml and 1,05 mg/ml final concentration). The Kaolin induced sample without adding ristocetin acted as the control measurement. […] Almost all platelets are deactivated and no more platelet contribution to the clot strength is detectable.

Row | Compound | TEG ratio (maximal amplitude with ristocetin/without ristocetin)*100 (VWD type 1 patients) | VWF:Ag (VWD type 1 patients) | ristocetin cofactor activity (VWD type 1 patients) | clotting time [1] | maximal amplitude [1] | maximal amplitude after ristocetin preincubation relative to maximal amplitude without preincubation ([2]; blood from a VWD type 1 patient) | maximal amplitude after ristocetin preincubation relative to maximal amplitude without preincubation ([2]; blood from a VWD type 3 patient) | maximal amplitude after ristocetin preincubation relative to maximal amplitude without preincubation ([2]; normal blood) | clot strength after ristocetin incubation ([2]; patients with VWD, 0.71 mg/ml and 1,05 mg/ml final concentration) | maximum amplitude after incubation with ristocetin ([2]; patients without VWD, 0.71 mg/ml and 1,05 mg/ml final concentration)
1 | NC(=O)CC[C@@H]1NC(=O)[C@H](Cc2ccccc2)NC(=O)[C@H](Cc2ccc(O)cc2)NC(=O)CCSSC[C@@H](C(=O)N2CCC[C@H]2C(=O)N[C@H](CCCN=C(N)N)C(=O)NCC(N)=O)NC(=O)[C@H](CC(N)=O)NC1=O [DDAVP, Desmopressin acetate] | normalize | increase | increase |  |  |  |  |  |  | 
2 | ristocetin |  |  |  | increase | decrease | about 75% | ~100% | about 20% | not or only slightly modified | significant decrease
